Experimental data from patent publication US9738634B2, “Heterocyclic amide compound and herbicide” (SYNGENTA PARTICIPATIONS AG, priority 2013, dated 2017).

Legend:
Format in all cases: in vivo
Conditions in all cases: soil treatment, treatment dosage 80 g/ha
rapeseed = experiment: Test Example 3: soil treatment, effect on crop; g: rapeseed
Description: (§1) Weedkilling Efficacy Test Through Soil Treatment
(§2) Sterilized diluvial soil was introduced into 21 cm long, 13 cm wide, 7 cm deep plastic boxes, and seeds of crabgrass, green foxtail, barnyard grass, wild oat, black-grass, Italian ryegrass, common wind-grass, Indian mallow, redroot pigweed, fig-leafed goosefoot, chickweed, catchweed, birds-eye speedwell, corn, soybean, rice, wheat, beet and rapeseed were each spot-sown, and covered with about 1.5 cm of soil. Next, emulsions of compounds of the present invention prepared according to compounding example 2 were diluted with water to give the specified dosages, and applied uniformly onto the soil surface with a small sprayer. The plants were grown by placing the plastic boxes in a greenhouse at 25 to 30° C., and 3 weeks after the pesticide treatment the effect on each type of plant was investigated on the basis of the assessment criteria of test example 1.
(§3) A: barnyard grass, B: bulrush, C: oval-leafed pondweed, D: crabgrass, E: green foxtail, F: barnyard grass, G: wild oat, H: black-grass, I: Italian ryegrass, J: common wind-grass, K: Indian mallow, L: redroot pigweed, M: fig-leafed goosefoot, N: chickweed, O: catchweed, p: birds-eye speedwell, a: transplanted rice, b: directly sown rice, c: corn, d: soybean, e: wheat, f: beet, g: rapeseed
(§4) Further, pesticide dosage (g/ha) indicates the concentration regulated such that treatment was with only the stated number of grams (g), when calculated per hectare (ha).

common wind-grass = experiment: Test Example 3: weedkilling efficacy through soil treatment; J: common wind-grass
Description: as §1, §2, §3, §4

Italian ryegrass = experiment: Test Example 3: weedkilling efficacy through soil treatment; I: Italian ryegrass
Method in brief: (§5)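 Crop and weed responses were judged three weeks after a uniform surface spray of the water-diluted emulsion at the given g/ha rate. Seeds sat beneath about 1.5 cm of sterilized diluvial soil, and boxes stood in a greenhouse at 25 to 30° C.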

black-grass = experiment: Test Example 3: weedkilling efficacy through soil treatment; H: black-grass
Method in brief: as §5

wheat = experiment: Test Example 3: soil treatment, effect on crop; e: wheat
Method in brief: as §5

Structure (SMILES) | g: rapeseed, effect on crop grade (rapeseed) | J: common wind-grass, weedkilling efficacy grade (common wind-grass) | I: Italian ryegrass, weedkilling efficacy grade (Italian ryegrass) | H: black-grass, weedkilling efficacy grade (black-grass) | e: wheat, effect on crop grade (wheat)
CC(C)(C(=O)Nc1nc(C(F)(F)F)cs1)N1COCN(c2ccccc2)C1=O [A-1-06] | 4 (weed kill ratio 70% or more, less than 90%) | 5 (weed kill ratio 90% or more, (practically complete withering)) | 5 (weed kill ratio 90% or more, (practically complete withering)) | 5 (weed kill ratio 90% or more, (practically complete withering)) | 
CC(C)(C(=O)Nc1ccnc(Cl)n1)N1COCN(c2ccccc2)C1=O [A-1-20] | 1 (weed kill ratio 5% or more, less than 20%) | 5 (weed kill ratio 90% or more, (practically complete withering)) | 5 (weed kill ratio 90% or more, (practically complete withering)) | 5 (weed kill ratio 90% or more, (practically complete withering)) | 1 (weed kill ratio 5% or more, less than 20%)
CC(C)(C(=O)Nc1cc(Cl)nc(Cl)n1)N1COCN(c2ccccc2)C1=O [A-1-21] | 0 (weed kill ratio 5% or less (practically no effect)) | 5 (weed kill ratio 90% or more, (practically complete withering)) | 4 (weed kill ratio 70% or more, less than 90%) | 4 (weed kill ratio 70% or more, less than 90%) | 0 (weed kill ratio 5% or less (practically no effect))
